According to US5395947A, “Platinum(II) complex and processes for preparing the same” (Sunkyong Industries, Ltd., priority 1991, dated 1995):

Experiments:
[1] = system: ICR mice; assay: Acute toxicity test; assay type: in vivo; parameters: Lethality: unit not given here; conditions: for Lethality: 10080 min
Experimental: 7-week-old ICR mice(male: 34±2 g; female: 31±2 g) were fed with solid food and water under the condition of 23±1° C. temperature and 65±5% humidity before the test.
Each treatment group consisted of 6 mice. The test compounds were administered intraperitoneally.
For 7 days after the administration, the appearance and the fate of the tested animals were recorded. The dead animals were subjected to autopsy and their visible pathological changes were observed. Their viscerals were stored in 10% formalin solution.

[2] = system: murine leukemia L1210; assay: Antitumor activity test on murine leukemia L1210 in vivo; parameters: species or system male BDF1 mice; conditions: days 1, 5, 9
Experimental: 2. Antitumor activity test on murine leukemia L1210 in vivo
Murine leukemia L1210 cells were maintained in the peritoneal cavities of 6-week-old male DBA/2 mice by weekly transfer in accordance with the procedure described in cancer chemotherapy Reports, Part 3, 3(2), 7 (1972). Specifically, 1×10^6 leukemia cells were inoculated into the abdominal cavities of 6-week-old male BDF1 mice weighing 21±3 g on day 0. Each treatment group consisted of seven mice. The test compounds were dissolved or suspended in 0.5% carboxymethyl cellulose(CMC)solution (in water) and were administered intraperitoneally on days 1, 5, and 9 relative to the tumor inoculation.
Thirty mice of 6-week-old male BDF1 weighing 21±3 g were used as the control group, which were injected with 0.5% CMC solution only in the same manner as above.
Anti-tumor activities of the compounds were evaluated in terms of the T/C % values calculated from the mean survival time(T) of the compound-treated group over that(C) of the control group. [formula]

[3] = Test for water solubility; assay type: physicochemical; conditions: water
Excerpt: 3. Test for water solubility
A standard plot of UV absorbance(220 nm) vs. concentration was made; and employed to determine water-solubility.
The mixture was then passed through a 0.45 micron disposable membrane filter before dilution and UV measurement.

[4] = system: murine leukemia L1210 cells; assay: Growth inhibition test on cultured murine leukemia L1210 cells; assay type: cell-based; conditions: 48 hours, 37° C., Trypan blue viability
Experimental: 1. Growth inhibition test on cultured murine leukemia L1210 cells
Murine leukemia L1210 cells(1×10^5) were treated with various concentrations of the compounds prepared in the above examples in RPMI 1640 medium supplemented with 10% fetal calf serum, and cultured in a 5% CO2 humidified incubator at 37° C. for 48 hours. Their viability, estimated by staining with 0.17% Trypan blue, was compared with that of control cells cultured in the identical medium without the compounds.

CC1(C)O[C@H](CN)[C@@H](CN)O1.O=C1C[O][Pt][O]1 [Example 2, (glycolato-O,O')[(4R,5R)-4,5-bis(aminomethyl)-2,2-dimethyl-1,3-dioxolane]platinum(II)]
Number of dead mice for 7 days ([1]; female, 25.0 mg/kg i.p.): 0/6
Number of dead mice, 1st day ([1]; female, 25.0 mg/kg i.p.): 0/6
Number of dead mice for 7 days ([1]; female, 32.5 mg/kg i.p.): 3/6
Number of dead mice, 1st day ([1]; female, 32.5 mg/kg i.p.): 0/6
Number of dead mice, 3rd day ([1]; female, 32.5 mg/kg i.p.): 2/6
Number of dead mice, 4th day ([1]; female, 32.5 mg/kg i.p.): 1/4
Lethality ([1]; female, 32.5 mg/kg i.p.): 50.0
Number of dead mice for 7 days ([1]; female, 42.3 mg/kg i.p.): 4/6
Number of dead mice, 1st day ([1]; female, 42.3 mg/kg i.p.): 0/6
Number of dead mice, 3rd day ([1]; female, 42.3 mg/kg i.p.): 3/6
Number of dead mice, 4th day ([1]; female, 42.3 mg/kg i.p.): 1/3
Lethality ([1]; female, 42.3 mg/kg i.p.): 66.7
Number of dead mice for 7 days ([1]; female, 55.0 mg/kg i.p.): 6/6
Number of dead mice, 1st day ([1]; female, 55.0 mg/kg i.p.): 0/6
Number of dead mice, 3rd day ([1]; female, 55.0 mg/kg i.p.): 4/6
Number of dead mice, 4th day ([1]; female, 55.0 mg/kg i.p.): 1/2
Number of dead mice, 5th day ([1]; female, 55.0 mg/kg i.p.): 1/1
Lethality ([1]; female, 55.0 mg/kg i.p.): 100.0
Number of dead mice for 7 days ([1]; female, 71.4 mg/kg i.p.): 6/6
Number of dead mice, 1st day ([1]; female, 71.4 mg/kg i.p.): 0/6
Number of dead mice, 3rd day ([1]; female, 71.4 mg/kg i.p.): 4/6
Number of dead mice, 4th day ([1]; female, 71.4 mg/kg i.p.): 2/2
Lethality ([1]; female, 71.4 mg/kg i.p.): 100.0
Number of dead mice for 7 days ([1]; male, 25.0 mg/kg i.p.): 0/6
Number of dead mice, 1st day ([1]; male, 25.0 mg/kg i.p.): 0/6
Number of dead mice for 7 days ([1]; male, 32.5 mg/kg i.p.): 3/6
Number of dead mice, 1st day ([1]; male, 32.5 mg/kg i.p.): 0/6
Number of dead mice, 3rd day ([1]; male, 32.5 mg/kg i.p.): 1/6
Number of dead mice, 4th day ([1]; male, 32.5 mg/kg i.p.): 1/5
Number of dead mice, 5th day ([1]; male, 32.5 mg/kg i.p.): 1/4
Lethality ([1]; male, 32.5 mg/kg i.p.): 50.0
Number of dead mice for 7 days ([1]; male, 42.3 mg/kg i.p.): 5/6
Number of dead mice, 1st day ([1]; male, 42.3 mg/kg i.p.): 0/6
Number of dead mice, 3rd day ([1]; male, 42.3 mg/kg i.p.): 3/6
Number of dead mice, 4th day ([1]; male, 42.3 mg/kg i.p.): 2/3
Lethality ([1]; male, 42.3 mg/kg i.p.): 83.3
Number of dead mice for 7 days ([1]; male, 55.0 mg/kg i.p.): 6/6
Number of dead mice, 1st day ([1]; male, 55.0 mg/kg i.p.): 0/6
Number of dead mice, 3rd day ([1]; male, 55.0 mg/kg i.p.): 4/6
Number of dead mice, 4th day ([1]; male, 55.0 mg/kg i.p.): 1/2
Number of dead mice, 5th day ([1]; male, 55.0 mg/kg i.p.): 1/1
Lethality ([1]; male, 55.0 mg/kg i.p.): 100.0
Number of dead mice for 7 days ([1]; male, 71.4 mg/kg i.p.): 6/6
Number of dead mice, 1st day ([1]; male, 71.4 mg/kg i.p.): 0/6
Number of dead mice, 3rd day ([1]; male, 71.4 mg/kg i.p.): 4/6
Number of dead mice, 4th day ([1]; male, 71.4 mg/kg i.p.): 2/2
Lethality ([1]; male, 71.4 mg/kg i.p.): 100.0
T/C (%) ([2]; 3.1 mg/kg i.p.): 112%
T/C (%) ([2]; 6.2 mg/kg i.p.): 179%
T/C (%) ([2]; 12.5 mg/kg i.p.): 201%
T/C (%) ([2]; 25 mg/kg i.p.): toxic
T/C (%) ([2]; 50 mg/kg i.p.): toxic
Solubility in water [3]: 17500 µg/mL
IC50 (concentration required for 50% inhibition of growth) [4]: 0.15 µg/mL

CC(C)CC1OC2C[NH2+][Pt-2]3([NH2+]CC2O1)[O]CC(=O)[O]3 [Example 11, (glycolato-O,O')[(4R,5R)-4,5-bis(aminomethyl)-2-isobutyl-1,3-dioxolane]platinum(II)]
T/C (%) ([2]; 3.1 mg/kg i.p.): 102%
T/C (%) ([2]; 6.2 mg/kg i.p.): 146%
T/C (%) ([2]; 12.5 mg/kg i.p.): 191%
T/C (%) ([2]; 25 mg/kg i.p.): toxic
T/C (%) ([2]; 50 mg/kg i.p.): toxic
Solubility in water [3]: 4600 µg/mL
IC50 (concentration required for 50% inhibition of growth) [4]: 0.10 µg/mL

CC1[O][Pt][O]C1=O.NCC1OC2(CCCCC2)OC1CN [Example 16, (L-lactato-O,O'){cyclohexanespiro-2'-[(4'R,5'R)-4',5'-bis(aminomethyl)-1',3'-dioxolane]}platinum(II)]
T/C (%) ([2]; 12.5 mg/kg i.p.): 204%
T/C (%) ([2]; 25 mg/kg i.p.): 227%
T/C (%) ([2]; 50 mg/kg i.p.): toxic
Solubility in water [3]: 3800 µg/mL
IC50 (concentration required for 50% inhibition of growth) [4]: 0.34 µg/mL

N.N.O=C([O-])C1(C(=O)[O-])CCC1.[Pt+2] [carboplatin, reference compound]
T/C (%) ([2]; 6.2 mg/kg i.p.): 107%
T/C (%) ([2]; 12.5 mg/kg i.p.): 125%
T/C (%) ([2]; 25 mg/kg i.p.): 148%
T/C (%) ([2]; 50 mg/kg i.p.): 196%
T/C (%) ([2]; 100 mg/kg i.p.): 197%
Solubility in water [3]: 10000 µg/mL
IC50 (concentration required for 50% inhibition of growth) [4]: 1.98 µg/mL

CCCC1OC2C[NH2+][Pt-2]3([NH2+]CC2O1)[O]CC(=O)[O]3 [Example 10, (glycolato-O,O')[(4R,5R)-4,5-bis(aminomethyl)-2-propyl-1,3-dioxolane]platinum(II)]
T/C (%) ([2]; 3.1 mg/kg i.p.): 154%
T/C (%) ([2]; 6.2 mg/kg i.p.): 161%
T/C (%) ([2]; 12.5 mg/kg i.p.): 201%
T/C (%) ([2]; 25 mg/kg i.p.): toxic
T/C (%) ([2]; 50 mg/kg i.p.): toxic
Solubility in water [3]: > 30000 µg/mL
IC50 (concentration required for 50% inhibition of growth) [4]: 0.13 µg/mL

O=C1[O][Pt-2]2([NH2+]CC3OC4(CCCC4)OC3C[NH2+]2)[O]C(=O)C12CCC2 [Example 31, cis-cyclobutane-1,1-dicarboxylato[(4S,5S)-4,5-bis(aminomethyl)-1,3-dioxolane-2-spiro-1'-cyclopentane]platinum(II)]
T/C (%) ([2]; 6.2 mg/kg i.p.): 102%
T/C (%) ([2]; 12.5 mg/kg i.p.): 109%
T/C (%) ([2]; 25 mg/kg i.p.): 94%
T/C (%) ([2]; 50 mg/kg i.p.): 106%
T/C (%) ([2]; 100 mg/kg i.p.): 117%
Solubility in water [3]: 1900 µg/mL
IC50 (concentration required for 50% inhibition of growth) [4]: 1.75 µg/mL

CC(C)(C)C1OC2C[NH2+][Pt-2]3([NH2+]CC2O1)[O]CC(=O)[O]3 [Example 12, (glycolato-O,O')[(4R,5R)-4,5-bis(aminomethyl)-2-tert-butyl-1,3-dioxolane]platinum(II)]
T/C (%) ([2]; 3.1 mg/kg i.p.): 104%
T/C (%) ([2]; 6.2 mg/kg i.p.): 136%
T/C (%) ([2]; 12.5 mg/kg i.p.): 154%
T/C (%) ([2]; 25 mg/kg i.p.): 167%
T/C (%) ([2]; 50 mg/kg i.p.): toxic
Solubility in water [3]: 2100 µg/mL
IC50 (concentration required for 50% inhibition of growth) [4]: 0.10 µg/mL
